Reference: patent publication US7527812B2, “Herbal composition for treating cancer” (Sheng Foong Pharmaceutical Co., Ltd., priority 2005, dated 2009)

Key:
Type in all cases: cell-based
[1] = tested on: Hep 3B hepatocellular carcinoma cells; test: in vitro cytotoxicity assay (MTS), Hep 3B; conditions: Homo sapiens, Hep3B, 72 hours exposure, read-out: IC50 (concentration that inhibits 50% of cell growth)
From the text: (§1) To examine the effects of the present composition SF-01 on inhibition of cancer/tumor cells, various human cell lines were used, including one normal cell line and eight cancer/tumor cell lines: • 1. RPTEC (Cambrex): Normal renal proxima tubule epithelial cell, Human • 2. A-498 (ATCC HTB-44): Kidney carcinoma, Human • 3. HCT 116 (ATCC CCL-247): Colorectal carcinoma, Human • 4. Hep 3B (ATCC HB-8064): Hepatocellular carcinoma, Human • 5. LNCap clone FGC (ATCC CRL-1740): Prostate carcinoma, Human • 6. MCF-7 (ATCC HTB-22): Mammary gland adenocarcinoma, Human • 7. MKN45 (FDSC JCRB0245): Stomach carcinoma, Human • 8. NCI-H226 (ATCC CRL-5826): Lung carcinoma, Human • 9. NPC-TW01 (School of Medicine, NTU): Nasal-pharyngeal carcinoma, Human […]
(§2) To evaluate the antitumoral activity of SF-01 towards various human cancer cell lines and measure the potential cytotoxicity of SF-01 towards the primary human renal cell lines (RPTEC), an in vitro cytotoxicity assay was carried out. […] To quantify the metabolically viable cells, the conversion of MTS to formazan was measured by absorbance at 490 nm in a 96-well microtiter plate reader. […] The percentage of cytostasis was calculated by the formula: Cytostasis (%)=[1−(B/A)]×100, where A is the absorbance of the untreated control and B is the absorbance of the treated cell. […]

[2] = tested on: MCF-7 mammary gland adenocarcinoma cells; test: in vitro cytotoxicity assay (MTS), MCF-7; conditions: Homo sapiens, MCF7, MCF-7, 72 hours exposure, read-out: IC50 (concentration that inhibits 50% of cell growth)
From the text: as §1, §2

[3] = tested on: A-498 kidney carcinoma cells; test: in vitro cytotoxicity assay (MTS), A498; conditions: Homo sapiens, A498, 72 hours exposure, read-out: IC50 (concentration that inhibits 50% of cell growth)
From the text: as §1, §2

[4] = tested on: various human tumor cell lines; test: in vitro cytotoxicity assay (MTS), span over the tumor cell lines; conditions: span over the eight tumor cell lines, 72 hours exposure
From the text: as §1, §2

[5] = tested on: RPTEC normal renal proximal tubule epithelial cells; test: in vitro cytotoxicity assay (MTS), normal cell RPTEC; conditions: Homo sapiens, 72 hours exposure, read-out: IC50 (concentration that inhibits 50% of cell growth)
From the text: as §1, §2

[6] = tested on: NPC-TW01 nasal-pharyngeal carcinoma cells; test: in vitro cytotoxicity assay (MTS), NPC-TW01; conditions: Homo sapiens, NPC-TW01, 72 hours exposure, read-out: IC50 (concentration that inhibits 50% of cell growth)
From the text: as §1, §2

[7] = tested on: NCI-H226 lung carcinoma cells; test: in vitro cytotoxicity assay (MTS), NCI-H226; conditions: Homo sapiens, NCI-H226, 72 hours exposure, read-out: IC50 (concentration that inhibits 50% of cell growth)
From the text: as §1, §2

[8] = tested on: LNCaP clone FGC prostate carcinoma cells; test: in vitro cytotoxicity assay (MTS), LNCaP clone FGC; conditions: Homo sapiens, 72 hours exposure, read-out: IC50 (concentration that inhibits 50% of cell growth)
From the text: as §1, §2

[9] = tested on: HCT 116 colorectal carcinoma cells; test: in vitro cytotoxicity assay (MTS), HCT 116; conditions: Homo sapiens, HCT 116, 72 hours exposure, read-out: IC50 (concentration that inhibits 50% of cell growth)
From the text: as §1, §2

[10] = tested on: MKN45 stomach carcinoma cells; test: in vitro cytotoxicity assay (MTS), MKN45; conditions: Homo sapiens, MKN-45, MKN45, 72 hours exposure, read-out: IC50 (concentration that inhibits 50% of cell growth)
From the text: as §1, §2

Row | SMILES | IC50 [1] [nM] | IC50 [2] [nM] | IC50 [3] [nM] | IC50 to various human tumor cell lines (span over the lines) [4] [nM] | IC50 [5] [nM] | IC50 [6] [nM] | IC50 [7] [nM] | IC50 [8] [nM] | IC50 [9] [nM] | IC50 [10] [nM]
1 | COc1cccc2c1C(=O)c1c(O)c3c(c(O)c1C2=O)C[C@@](O)(C(=O)CO)C[C@@H]3O[C@H]1C[C@H](N)[C@H](O)[C@H](C)O1 [Doxorubicin] | 116 | 70 | 782 | 800 to 11 | 3180 | 11 | 123 | 14 | 33 | 58
2 | CC(=O)O[C@H]1C(=O)[C@@]2(C)[C@H]([C@H](OC(=O)c3ccccc3)[C@]3(O)C[C@H](OC(=O)[C@H](O)[C@@H](NC(=O)c4ccccc4)c4ccccc4)C(C)=C1C3(C)C)[C@]1(OC(C)=O)CO[C@@H]1C[C@@H]2O [Taxol] | 0.0256 | < 0.0256 | 11.1 | 11 to 0.003 | 406 | < 0.0256 | < 0.64 | < 0.0256 | < 0.0256 | 0.0256
